From article PMC8235151, “Glycoside Hydrolases and Non-Enzymatic Glycation Inhibitory Potential of Viburnum opulus L. Fruit—In Vitro Studies” (Antioxidants, 2021)
Converted amounts (≈) assume the structure as drawn. “Also recorded” adds a separate entry of the source.

How the values were obtained:
[1] = molecular target: rat intestinal α-glucosidase; test: α-glucosidase inhibition assay (glucose release from disaccharide); type: biochemical
Protocol: The assessment of the α-glucosidase activity was slightly modified according to […] et al. and Gao et al.. […] Enzyme isolation was performed in an ultrasonic cleaner (for 30 sec) in an ice bath, then 30 sec without ultrasonic. This step was repeated 12 times. After that, the solution was centrifuged at 4 °C (3000 rpm, 30 min). 50 μL of diluted V. opulus samples were mixed with 50 μL of enzyme supernatant (diluted 2 times for reaction with maltose). After incubation at 37 °C for 10 min, 50 μL of substrate (0.1 M maltose or 0.5 M sucrose solution prepared in 0.1 M phosphate buffer, pH 6.9) was added and incubated in a 96-well microplate at 37 °C for 20 min for maltose and 60 min for sucrose. The reaction was stopped by adding 150 μL of 2 M Tris-HCl buffer (pH 7.0). The concentration of glucose released from the reaction mixture was determined by the commercial glucose test (BIOMAXIMA SA, Lublin, Poland).

[2] = molecular target: T1, α-amylase from porcine pancreas (Sus scrofa, UniProt P00690); test: Mode of α-amylase inhibition (Lineweaver-Burk); type: biochemical; conditions: for type of inhibition against α-amylase: regardless of the type of starch
T1 construct: α-amylase from porcine pancreas type VI-B; purchased Sigma Aldrich (Steinheim, Germany) type VI-B (catalogue number not given); host or cells: porcine pancreas
T1 sequence (P00690 16-511): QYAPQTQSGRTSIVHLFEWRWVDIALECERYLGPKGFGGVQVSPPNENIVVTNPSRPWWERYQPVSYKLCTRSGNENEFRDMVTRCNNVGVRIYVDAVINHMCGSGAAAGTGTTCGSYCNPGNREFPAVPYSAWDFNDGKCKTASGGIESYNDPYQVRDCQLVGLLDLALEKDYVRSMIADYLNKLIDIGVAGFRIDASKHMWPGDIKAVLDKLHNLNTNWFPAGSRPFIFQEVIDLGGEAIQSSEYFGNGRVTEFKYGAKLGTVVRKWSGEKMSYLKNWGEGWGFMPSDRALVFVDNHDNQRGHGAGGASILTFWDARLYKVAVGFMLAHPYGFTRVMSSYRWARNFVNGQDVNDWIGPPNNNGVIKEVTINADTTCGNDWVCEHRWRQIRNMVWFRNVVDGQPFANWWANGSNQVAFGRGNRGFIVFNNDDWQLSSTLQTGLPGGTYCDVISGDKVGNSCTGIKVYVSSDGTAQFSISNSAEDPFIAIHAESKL
Protocol: (§1) The α-amylase inhibition assay was based on a previously-described spectrophotometric method with some modifications. All reagents were prepared with 0.1 M phosphate buffer containing 6 mM CaCl2 (pH 6.9). Briefly, 20 µL of diluted V. opulus samples and 40 µL of potato starch (0.83 g/L) or starch from rice (1 g/L) solution were mixed with 20 µL of α-amylase (0.1 mg/mL for potato starch and 0.2 mg/mL for starch from rice) in a 96-well plate. […] The absorbance was read at 600 nm using a microplate reader (Synergy2, Biotek Instruments Inc., Winooski, VT, USA). […] Each sample was measured in triplicate.
The enzymes activities without and with tested samples were studied using the methods described in Section 2.5 and Section 2.6. A double reciprocal graph (1/v versus 1/S, where “v” is the reaction rate and “S” the concentration of the substrate), was plotted. All samples were tested at three different doses using six concentrations of substrate.

[3] = test system: rat intestinal α-glucosidase; test: Mode of α-glucosidase inhibition (Lineweaver-Burk); type: biochemical; conditions: for type of inhibition against α-glucosidase: regardless of the type of disaccharide
Protocol: The assessment of the α-glucosidase activity was slightly modified according to […] et al. and Gao et al.. […] Enzyme isolation was performed in an ultrasonic cleaner (for 30 sec) in an ice bath, then 30 sec without ultrasonic. […] After that, the solution was centrifuged at 4 °C (3000 rpm, 30 min). 50 μL of diluted V. opulus samples were mixed with 50 μL of enzyme supernatant (diluted 2 times for reaction with maltose). After incubation at 37 °C for 10 min, 50 μL of substrate (0.1 M maltose or 0.5 M sucrose solution prepared in 0.1 M phosphate buffer, pH 6.9) was added and incubated in a 96-well microplate at 37 °C for 20 min for maltose and 60 min for sucrose. The reaction was stopped by adding 150 μL of 2 M Tris-HCl buffer (pH 7.0). The concentration of glucose released from the reaction mixture was determined by the commercial glucose test (BIOMAXIMA SA, Lublin, Poland). […] A double reciprocal graph (1/v versus 1/S, where “v” is the reaction rate and “S” the concentration of the substrate), was plotted. All samples were tested at three different doses using six concentrations of substrate.

[4] = test system: AGE formation (BSA-fructose model); test: Protein glycation inhibition assay, BSA-fructose model; type: biochemical, bovine; conditions: 37 °C, 6 days
Protocol: The bovine serum albumin (BSA) and glucose/fructose assay was carried according to the method of Błaszczak et al. with some modifications. We prepared 25 mL of the test solution containing D-glucose or D-fructose (1.0 M), BSA (10 mg/mL) and sodium azide (0.1 mg/mL) in the phosphate buffer (0.1 M, pH 7.4). The test solution (1 mL) was incubated in the dark at 37 °C for 13 days for glucose and for 6 days for fructose with or without 0.5 mL of tested V. opulus samples. […] Next, the formation of AGE was evaluated based on fluorescence intensity at λ = 330 nm (excitation wave) and λ = 460 nm (emission wave). Fluorescence intensity was measured in 96-well plates (black, OptiPlate-96 F, PerkinElmer, UK) in a microplate reader (Synergy2, BioTek Instruments Inc., Winooski, VT, USA).

[5] = test system: AGE formation (BSA-glucose model); test: Protein glycation inhibition assay, BSA-glucose model; type: biochemical, bovine; conditions: 37 °C, 13 days
Protocol: The bovine serum albumin (BSA) and glucose/fructose assay was carried according to the method of Błaszczak et al. [45] with some modifications. We prepared 25 mL of the test solution containing D-glucose or D-fructose (1.0 M), BSA (10 mg/mL) and sodium azide (0.1 mg/mL) in the phosphate buffer (0.1 M, pH 7.4). The test solution (1 mL) was incubated in the dark at 37 °C for 13 days for glucose and for 6 days for fructose with or without 0.5 mL of tested V. opulus samples. […] Next, the formation of AGE was evaluated based on fluorescence intensity at λ = 330 nm (excitation wave) and λ = 460 nm (emission wave). Fluorescence intensity was measured in 96-well plates (black, OptiPlate-96 F, PerkinElmer, UK) in a microplate reader (Synergy2, BioTek Instruments Inc., Winooski, VT, USA).

[6] = molecular target: maltase from rat small intestine; parameters: method as in PMID 16787002; conditions: cited from earlier work
[7] = molecular target: α-amylase porcine pancreas; parameters: method as in PMID 16787002; conditions: cited from earlier work
α-amylase = molecular target: T2, α-amylase (Sus scrofa, UniProt P00690); parameters: method as in doi:10.3390/pr8111388; conditions: cited from earlier work
T2 construct: purchased Sigma Aldrich (Steinheim, Germany) type VI-B (catalogue number not given); host or cells: porcine pancreas
T2 sequence (P00690 16-511): T1 sequence (P00690 16-511)

[8] = molecular target: sucrase from rat small intestine; parameters: method as in PMID 16787002; conditions: cited from earlier work
[9] = test system: porcine pancreatic α-amylase; conditions: potato and maize starch; cited from earlier work
[10] = molecular target: T3, α-amylase from porcine pancreas type VI-B (Sus scrofa, UniProt P00690); test: α-amylase inhibition assay (starch-iodine, spectrophotometric); type: biochemical
T3 construct: α-amylase from porcine pancreas type VI-B; purchased Sigma Aldrich (Steinheim, Germany) type VI-B (catalogue number not given); host or cells: porcine pancreas
T3 sequence (P00690 16-511): T1 sequence (P00690 16-511)
Protocol: as §1

Row | SMILES | IC50 for the inhibition of α-glucosidase ([1]; substrate maltose) | IC50 for the inhibition of α-glucosidase ([1]; substrate sucrose) | Inhibition Type ([2]; potato starch) | type of inhibition against α-amylase [2] | Inhibition Type ([2]; rice starch) | Inhibition Type ([3]; maltose) | Ki ([3]; maltose) | type of inhibition against α-glucosidase [3] | Inhibition Type ([3]; sucrose) | Ki ([3]; sucrose) | IC50 for the inhibition of AGE formation [4] | further results
1 | C[C@H]1O[C@H](O[C@H]2[C@H](O)[C@@H](O)[C@@H](O[C@H]3[C@H](O)[C@@H](O)C(O)O[C@@H]3CO)O[C@@H]2CO)[C@H](O)[C@@H](O)[C@@H]1N[C@H]1C=C(CO)[C@@H](O)[C@H](O)[C@H]1O (some centres unmarked) [Acarbose, acarbose] | 0.051 ± 0.001a µg/mL | 1.37 ± 0.04a µg/mL | uncompetitive | uncompetitive; also recorded: uncompetitively | uncompetitive | mixed | / 0.021 μg/mL | mixed type of inhibition (competitive and noncompetitive); also recorded: mixed mode of inhibition | mixed | / 1.52 μg/mL |  | 
2 | Cl.N=C(N)NN [Aminoguanidine, aminoguanidine hydrochloride] |  |  |  |  |  |  |  |  |  |  | 106.08 ± 3.17 µg·days/mL | IC50 for the inhibition of AGE formation [5]: 137.80 ± 3.44a µg/mL
3 | O=C(/C=C/c1ccc(O)c(O)c1)O[C@@H]1C[C@](O)(C(=O)O)C[C@@H](O)[C@H]1O [Chlorogenic acid] | 103.37 ± 5.29bc µg/mL | 99.81 ± 0.75ab µg/mL | competitive | competitive | competitive | noncompetitive | / 145.41 μg/mL | noncompetitive-type inhibition | noncompetitive | / 181.21 μg/mL | 58.87 ± 0.93c µg/mL | IC50 against maltase [6]: 8810 µg/mL (≈ 24.9 mM); IC50 on α-amylase [7]: 13170 µg/mL (≈ 37.2 mM); lower inhibitory activity against α-amylase compared to acarbose (α-amylase): 5 fold; lower inhibitory activity against α-glucosidase than PEAF ([1]; maltose): 1.7 fold; Ki ([2]; potato starch): 3.46 mM; Ki ([2]; rice starch): 5.32 mM; IC50 against sucrase [8]: 500 µg/mL (≈ 1.41 mM); type of inhibitory effect on α-amylase hydrolysis of starch [9]: mixed type inhibitory effect; IC50 towards α-amylase higher than IC50 for CE, on average ([10]; average of both starches): 2.7 fold; IC50 towards α-amylase higher than IC50 for PE, on average ([10]; average of both starches): 14 fold; IC50 ([10]; substrate potato starch): 2.35 mM; IC50 ([10]; substrate starch from rice): 5.54 mM
